Data from ChEMBL document CHEMBL5113404, “Design, synthesis and biological evaluation of new parbendazole derivatives for the treatment of HNSCC” (Eur J Med Chem, 2022).
Values belong to the molecule of their own block, whether it stands above or below them. The source made the active and inactive calls. The calls are words filed in the database; no cut-off is given here.

Legend:
[1] = Antiproliferative activity against human HN-6 cells assessed as cell growth inhibition incubated for 72 hrs by CCK-8 assay; assay type: functional, cell-based; details: HN-6, 72 h
Tubulin (Homo sapiens) = Tubulin (Homo sapiens) (UniProt P68371+Q9H4B7+P0DPH7+P68366+Q13509+Q71U36+P04350+Q3ZCM7+P07437+P68363+Q9BQE3+Q6PEY2+Q13885+Q9BVA1+Q9BUF5); assay: Inhibition of tubulin polymerization (unknown origin) at 20 micromol/L by fluorescence based analysis; assay type: protein-complex assay; details: dose 20.0 µmol/L
Tubulin = assay: Inhibition of tubulin polymerization (unknown origin) by fluorescence based analysis; assay type: protein-complex assay, Homo sapiens
CAL-27 = assay: Antiproliferative activity against human CAL-27 cells assessed as cell growth inhibition incubated for 72 hrs by CCK-8 assay; assay type: functional, cell-based; details: CAL-27, 72 h
FaDu = assay: Antiproliferative activity against human FaDu cells assessed as cell growth inhibition incubated for 72 hrs by CCK-8 assay; assay type: functional, cell-based; details: read-out: IC50
HN-6 [2] = assay: Induction of cell morphological changes in human HN-6 cells assessed as decrease in tubulin network around nucleus at 100 nmol/L incubated for 24 hrs by DAPI staining based confocal microscopy analysis; assay type: functional
[3] = Antimigratory activity in human HN-6 cells assessed as inhibition of cell migration at 0.1 micromol/L measured after 24 hrs by scratch wound assay based fluorescence microscope analysis; assay type: functional; details: HN-6, 24 h, dose 0.1 µmol/L
HN-6 [4] = assay: Inhibition of cell invasion in human HN-6 cells at 200 to 500 nmol/L incubated for 24 hrs by crystal violet staining based transwell assay; assay type: functional; details: dose 200-500 nmol/L
[5] = Induction of apoptosis in human HN-6 cells assessed as viable cells at 0.1 micromol/L incubated for 24 hrs by Annexin-V/FITC-PI staining based flow cytometry analysis (reference value: 97.26%); assay type: functional; details: HN-6, 24 h, dose 0.1 µmol/L, read-out: Activity
[6] = Induction of apoptosis in human HN-6 cells assessed as early apoptotic cells at 0.1 micromol/L incubated for 24 hrs by Annexin-V/FITC-PI staining based flow cytometry analysis (reference value: 2.04%); assay type: functional; details: dose 0.1 µmol/L, at 0.1 µM
[7] = Induction of apoptosis in human HN-6 cells assessed as late apoptotic cells at 0.1 micromol/L incubated for 24 hrs by Annexin-V/FITC-PI staining based flow cytometry analysis (reference value: 8.81%); assay type: functional; details: dose 0.1 µmol/L, at 0.1 µM
[8] = Induction of apoptosis in human HN-6 cells assessed as necrotic cells at 0.1 micromol/L incubated for 24 hrs by Annexin-V/FITC-PI staining based flow cytometry analysis (reference value: 2.08%); assay type: functional; details: dose 0.1 µmol/L, at 0.1 µM
[9] = Induction of apoptosis in human HN-6 cells assessed as viable cells at 1 micromol/L incubated for 24 hrs by Annexin-V/FITC-PI staining based flow cytometry analysis (reference value: 97.26%); assay type: functional; details: HN-6, 24 h, dose 1 µmol/L, read-out: Activity
[10] = Induction of apoptosis in human HN-6 cells assessed as early apoptotic cells at 1 micromol/L incubated for 24 hrs by Annexin-V/FITC-PI staining based flow cytometry analysis (reference value: 2.04%); assay type: functional; details: dose 1 µmol/L, at 1 µM
[11] = Induction of apoptosis in human HN-6 cells assessed as late apoptotic cells at 1 micromol/L incubated for 24 hrs by Annexin-V/FITC-PI staining based flow cytometry analysis (reference value: 8.81%); assay type: functional; details: dose 1 µmol/L, at 1 µM
[12] = Induction of apoptosis in human HN-6 cells assessed as necrotic cells at 1 micromol/L incubated for 24 hrs by Annexin-V/FITC-PI staining based flow cytometry analysis (reference value: 2.08%); assay type: functional; details: dose 1 µmol/L, at 1 µM
[13] = Induction of cell cycle arrest in human HN-6 cells assessed as accumulation of cells at G1 phase at 0.1 micromol/L incubated for 24 hrs by PI staining based flow cytometry analysi (reference value: 45.33%); assay type: functional; details: dose 0.1 µmol/L, at 0.1 µM
[14] = Induction of cell cycle arrest in human HN-6 cells assessed as accumulation of cells at S phase at 0.1 micromol/L incubated for 24 hrs by PI staining based flow cytometry analysi (reference value: 32.12%); assay type: functional; details: dose 0.1 µmol/L, at 0.1 µM
[15] = Induction of cell cycle arrest in human HN-6 cells assessed as accumulation of cells at S phase at 0.1 micromol/L incubated for 24 hrs by PI staining based flow cytometry analysi (reference value: 31.19%); assay type: functional; details: dose 0.1 µmol/L, at 0.1 µM
HN-6 [16] = assay: Antitumor activity against human HN-6 cells xenografted in mouse assessed as reduction on tumor growth at 80 mg/kg,IG administered daily for 2 weeks; assay type: functional, organism-based
[17] = Acute toxicity in mouse xenografted with human HN-6 cells assessed as body weight loss at 80 mg/kg,IG administered daily for 2 weeks; assay type: organism-based; details: in vivo, po, 336 h
Mus musculus [18] = assay: Antitumor activity against human HN-6 cells xenografted in mouse serum assessed as reduction on TPS level at 80 mg/kg,IG administered daily for 2 weeks by ELISA; assay type: functional, organism-based
Mus musculus [19] = assay: Antitumor activity against human HN-6 cells xenografted in mouse serum assessed as reduction on CYFRA21-1 level at 80 mg/kg,IG administered daily for 2 weeks by ELISA; assay type: functional, organism-based
Mus musculus [20] = assay: Antitumor activity against human HN-6 cells xenografted in mouse serum assessed as reduction on SCCAg level at 80 mg/kg,IG administered daily for 2 weeks by ELISA; assay type: functional, organism-based
[21] = Cytotoxicity against human HFF-1 clls assessed as reduction in cell viability incubated for 72 hrs by CCK-8 assay; assay type: toxicity, cell-based; details: HFF-1 cells
[22] = Acute toxicity in Kunming mouse assessed as adverse effect at 1 g/Kg,IG after 15 days of administration; details: in vivo, po, 1000 mg/kg, 360 h, time 15 day
[23] = Acute toxicity in Kunming mouse assessed as death at 1 g/Kg,IG after 15 days of administration; details: in vivo, po, 1000 mg/kg, 360 h, time 15 day
[24] = Acute toxicity in IG dosed Kunming mouse assessed as lethal dose after 15 days of administration; assay type: organism-based; details: in vivo, po, time 15 day
[25] = Half life in rat at 100 mg/kg,IG measured upto 24 hrs by HPLC analysis; assay type: ADME, organism-based; details: in vivo, po
[26] = Tmax in rat at 100 mg/kg,IG measured upto 24 hrs by HPLC analysis; assay type: ADME, organism-based; details: in vivo, po
[27] = Cmax in rat at 100 mg/kg,IG measured upto 24 hrs by HPLC analysis; assay type: ADME, organism-based; set-up: dose 100 mg/kg, time < 24 hrs, route ig; details: in vivo, po
[28] = AUC (0 to t) in rat at 100 mg/kg,IG measured upto 24 hrs by HPLC analysis; assay type: ADME, organism-based; set-up: dose 100 mg/kg, time < 24 hrs, route ig; details: in vivo, po

Compound: CC(C)OC(=O)Nc1nc2ccc(C#N)cc2[nH]1
- IC50 [1]: > 2000 nM
- inhibition (Tubulin (Homo sapiens)): 3.43%

Compound: CCCCc1ccc2nc(NC(=O)OCCC)[nH]c2c1
- IC50 [1]: 254 nM
- IC50 (CAL-27): 252 nM
- IC50 (FaDu): 284 nM
- inhibition (Tubulin (Homo sapiens)): 88.8%
- IC50 (Tubulin): 5340 nM

Compound: Cc1ccc2nc(NC(=O)OC(C)C)[nH]c2c1
- IC50 [1]: 595 nM
- inhibition (Tubulin (Homo sapiens)): 71.6%
- IC50 (Tubulin): 6270 nM

Compound: C=CCOC(=O)Nc1nc2ccc(CCCC)cc2[nH]1
- IC50 [1]: 46.9 nM
- IC50 (CAL-27): 118 nM
- IC50 (FaDu): 126 nM
- inhibition (Tubulin (Homo sapiens)): 86.6%
- IC50 (Tubulin): 4410 nM
- Activity (HN-6 [2]): Active
- inhibition at 0.1 µM [3]: 8.1%
- inhibition (HN-6 [4]): Active
- viability at 0.1 µM [5]: 79.3%
- Activity [6]: 4.98%
- Activity [7]: 12.09%
- Activity [8]: 3.77%
- viability at 1 µM [9]: 60.8%
- Activity [10]: 12.28%
- Activity [11]: 21.43%
- Activity [12]: 5.48%
- Activity [13]: 14.51%
- Activity [14]: 19.14%
- Activity [15]: 64.65%
- Activity (HN-6 [16]): Active
- Activity [17]: Non-Toxic
- Activity (Mus musculus [18]): Active
- Activity (Mus musculus [19]): Active
- Activity (Mus musculus [20]): Active
- IC50 at 72 h [21]: > 20000 nM
- Activity [22]: Non-Toxic
- Activity [23]: Non-Toxic
- LD50 at 360 h [24]: > 1000 mg/kg
- half-life [25]: 2.19 h
- Tmax [26]: 4 h
- Cmax [27]: 83 ng/mL
- AUC(0-t) at 24 h [28]: 386 ng·h/mL

Compound: CC[C@]1(O)C[C@@H]2CN(CCc3c([nH]c4ccccc34)[C@@](C(=O)OC)(c3cc4c(cc3OC)N(C)[C@H]3[C@@](O)(C(=O)OC)[C@H](OC(C)=O)[C@]5(CC)C=CCN6CC[C@]43[C@@H]65)C2)C1 [VINBLASTINE]
- IC50 [1]: 0.83 nM
- IC50 (CAL-27): 1.03 nM
- IC50 (FaDu): 4.48 nM

Compound: COc1ccc(/C=C\c2cc(OC)c(OC)c(OC)c2)cc1O [COMBRETASTATIN A4]
- IC50 [1]: 4.43 nM
- IC50 (CAL-27): 3.01 nM
- IC50 (FaDu): 5.05 nM

Compound: CC(C)OC(=O)Nc1nc2cc(F)c(F)cc2[nH]1
- IC50 [1]: 1370 nM
- inhibition (Tubulin (Homo sapiens)): 12.6%

The next lines start with results.

- inhibition (Tubulin (Homo sapiens)): 32.3%
Compound: CCCCc1ccc2nc(NC(=O)NC3CCCC3)[nH]c2c1
- IC50 [1]: 745 nM

- inhibition (Tubulin (Homo sapiens)): 34.4%
Compound: CCCCc1ccc2nc(NC(=O)OCC(C)C)[nH]c2c1
- IC50 [1]: 412 nM

- inhibition (Tubulin (Homo sapiens)): 8.6%
Compound: CCCCc1ccc2nc(NC(=O)OC3CCCC3)[nH]c2c1
- IC50 [1]: 1690 nM

- inhibition (Tubulin (Homo sapiens)): 36.4%
Compound: CCCCc1ccc2nc(NC(=O)OCCCCl)[nH]c2c1
- IC50 [1]: 456 nM

- inhibition (Tubulin (Homo sapiens)): 89.4%
- IC50 (Tubulin): 5080 nM
Compound: Cc1cc2nc(NC(=O)OC(C)C)[nH]c2cc1C
- IC50 [1]: 135 nM

- inhibition (Tubulin (Homo sapiens)): 44.1%
Compound: CCCCOC(=O)Nc1nc2ccc(CCCC)cc2[nH]1
- IC50 [1]: 254 nM

- inhibition (Tubulin (Homo sapiens)): 99.7%
- IC50 (Tubulin): 1620 nM
Compound: CCCCc1ccc2nc(NC(=O)OC(C)CC)[nH]c2c1 (stereo unspecified)
- IC50 [1]: 74.6 nM
- IC50 (CAL-27): 171 nM
- IC50 (FaDu): 154 nM

- inhibition (Tubulin (Homo sapiens)): 0%
Compound: CCCCc1ccc2nc(NC(=O)NCC)[nH]c2c1
- IC50 [1]: 187 nM

- inhibition (Tubulin (Homo sapiens)): 0%
Compound: CCCCCCCOC(=O)Nc1nc2ccc(CCCC)cc2[nH]1
- IC50 [1]: > 2000 nM

- inhibition (Tubulin (Homo sapiens)): 10.5%
Compound: CCCCc1ccc2nc(NC(=O)OCc3ccccc3)[nH]c2c1
- IC50 [1]: > 2000 nM

- inhibition (Tubulin (Homo sapiens)): 4.37%
Compound: CC(C)OC(=O)Nc1nc2ccc(C(F)(F)F)cc2[nH]1
- IC50 [1]: 1000 nM
